Reference: the Deep4Chem optical property database

Assay: solvent given as SMILES

CCC1=C(C)C2=C(C)c3c(C)c(CC)c(C)n3[B-](F)(F)[N+]2=C1C
fluorescence lifetime (in C1CCCCC1): 5.6 ns
fluorescence lifetime (in C1CCOC1): 5.63 ns
fluorescence lifetime (in C1COCCO1): 5.48 ns
fluorescence lifetime (in CC#N): 5.96 ns
fluorescence lifetime (in CC(C)=O): 5.92 ns
fluorescence lifetime (in CC(C)O): 6.04 ns
fluorescence lifetime (in CCC(C)C): 6.28 ns
fluorescence lifetime (in CCCCCC): 5.9 ns
fluorescence lifetime (in CCCCCCCC): 5.84 ns
fluorescence lifetime (in CCCCCCCCCCO): 5.71 ns
fluorescence lifetime (in CCCCCCCCO): 5.9 ns
fluorescence lifetime (in CCCCCCO): 5.78 ns
fluorescence lifetime (in CCCCO): 5.98 ns
fluorescence lifetime (in CCCO): 6.01 ns
fluorescence lifetime (in CCO): 6.09 ns
fluorescence lifetime (in CCOC(C)=O): 5.78 ns
fluorescence lifetime (in CCOCC): 6.21 ns
fluorescence lifetime (in CN1CCCC1=O): 5.56 ns
fluorescence lifetime (in CN(C)C=O): 5.57 ns
fluorescence lifetime (in CO): 6.1 ns
fluorescence lifetime (in Cc1ccccc1): 5.07 ns
fluorescence lifetime (in OCC(F)(F)F): 6.94 ns
fluorescence lifetime (in OCCO): 5.8 ns
fluorescence lifetime (in OCCOc1ccccc1): 5.46 ns
fluorescence lifetime (in c1ccccc1): 5 ns

CCCCOC(=O)c1ccccc1-c1c2ccc(=[N+](CC)CC)cc-2oc2cc(N(CC)CC)ccc12
fluorescence lifetime (in CC#N): 1.61 ns
fluorescence lifetime (in CCO): 2.92 ns
fluorescence lifetime (in CN(C)C=O): 1.92 ns
fluorescence lifetime (in O): 1.67 ns

c1ccc2c(c1)OP1(=NP(Oc3ccc4ccc5cccc6ccc3c4c56)(Oc3ccc4ccc5cccc6ccc3c4c56)=NP(Oc3ccc4ccc5cccc6ccc3c4c56)(Oc3ccc4ccc5cccc6ccc3c4c56)=N1)Oc1ccccc1-2
fluorescence lifetime (in ClCCl): 1.23 ns

CCOC(=O)COc1ccc(/C=C/C2=C3c4ccccc4C(c4[nH]c(C)cc4C)=[N+]3[B-](F)(F)n3c(/C=C/c4ccc(OCC(=O)OCC)cc4)cc(C)c32)cc1
fluorescence lifetime (in ClCCl): 4.82 ns

NS(=O)(=O)c1ccc(N2N=C(c3ccc(O)cc3)CC2c2ccc(F)cc2)cc1 (configuration not stated)
fluorescence lifetime (in C1CCOC1): 2.42 ns
fluorescence lifetime (in C1COCCO1): 2.33 ns
fluorescence lifetime (in CC#N): 2.24 ns
fluorescence lifetime (in CC(C)O): 1.98 ns
fluorescence lifetime (in CCO): 1.78 ns
fluorescence lifetime (in CCOC(C)=O): 2.35 ns
fluorescence lifetime (in CN(C)C=O): 2.45 ns
fluorescence lifetime (in CO): 1.64 ns
fluorescence lifetime (in CS(C)=O): 2.45 ns
fluorescence lifetime (in O): 3.17 ns

CC1=CC(/C=C/c2ccc([N+](C)(C)C)cc2)=[N+]2C1=C(c1ccc(C#CCO[C@@H]3O[C@H](CO)[C@@H](O)C(O)[C@H]3O)cc1)c1c(C)cc(/C=C/c3ccc([N+](C)(C)C)cc3)n1[B-]2(F)F (some centres not stated)
fluorescence lifetime (in CC#N): 5.3 ns

Cc1ccc(-c2ccc(/C=C/c3ccc(Cl)cc3)cn2)nc1
fluorescence lifetime (in CC#N): 1.01 ns

CC1(C)c2ccccc2-c2ccc(N3c4ccc(-c5ccc(/C=C6\C(=O)c7ccc(C(=O)O)cc7C6=O)s5)cc4C4CCCC43)cc21 (configuration not stated)
fluorescence lifetime (in ClC(Cl)Cl): 1.04 ns

N#Cc1cc(C#N)c(-n2c3ccccc3c3ccccc32)cc1-n1c2ccccc2c2ccccc21
fluorescence lifetime (in Cc1ccccc1): 9 ns

Cc1cc2nc3[nH]c(=O)n(C)c(=O)c3nc2cc1C
fluorescence lifetime (in CC#N): 0.64 ns

CCC1(CC)c2ccccc2-c2c1c1c(c3c2C(CC)(CC)c2cc(B(c4c(C)cc(C)cc4C)c4c(C)cc(C)cc4C)ccc2-3)C(CC)(CC)c2ccccc2-1
fluorescence lifetime (in C1CCOC1): 3.2 ns

c1ccc(-c2cc3c(-c4ccccc4)c4cccc5c(-c6ccccc6)cc6c(-c7ccccc7)c7cccc2c7c3c6c54)cc1
fluorescence lifetime (in ClCCl): 2.97 ns

CCCCOc1ccc(-c2oc3cc4n(c3c2-c2ccc(OCCCC)cc2)[B-](F)(F)[N+]2=Cc3cc5oc(-c6ccc(OCCCC)cc6)c(-c6ccc(OCCCC)cc6)c5n3[B-](F)(F)[N+]2=C4)cc1
fluorescence lifetime (in ClCCl): 1.97 ns

Cc1ccc(-c2cc(/C=C/c3ccc(N(c4ccccc4)c4ccccc4)cc3)c(-c3ccc(C)cc3)cc2/C=C/c2ccc(N(c3ccccc3)c3ccccc3)cc2)cc1
fluorescence lifetime (in ClCCl): 1.34 ns

COc1ccc(C2=CC(c3ccc4ccccc4c3)=[O+][B-](C(C)=O)(C(C)=O)O2)cc1
fluorescence lifetime (in CC#N): 3 ns
fluorescence lifetime (in ClC(Cl)(Cl)Cl): 1.2 ns

COc1c2ccccc2c(OC)c2c1c1cc(C)ccc1n2C
fluorescence lifetime (in C1CCCCC1): 24.6 ns
fluorescence lifetime (in CC#N): 31.1 ns
fluorescence lifetime (in CO): 29.8 ns
fluorescence lifetime (in ClCCl): 27.6 ns

CCCCCCN1C(=O)C(c2ccc(-n3c4ccccc4c4ccccc43)cc2)=C(c2ccc(-n3c4ccccc4c4ccccc43)cc2)C1=O
fluorescence lifetime (in ClC(Cl)Cl): 5.4 ns
fluorescence lifetime (in c1ccc2c(c1)c1ccccc1n2-c1ccc(-c2ccc(-n3c4ccccc4c4ccccc43)cc2)cc1): 4 ns

CCCCCn1c2ccccc2c(=O)c2ccccc21
fluorescence lifetime (in CS(C)=O): 8.1 ns

c1ccc(N2N=C(c3ccc4ccc5cccc6ccc3c4c56)CC2c2ccc3ccc4cccc5ccc2c3c45)cc1 (configuration not stated)
fluorescence lifetime (in ClCCl): 2.67 ns

CCc1c(C)[nH]c(C2=[N+]3C(=Cc4c(C)c(CC)c(C)n4[B-]3(F)F)c3ccccc32)c1C
fluorescence lifetime (in ClCCl): 6.3 ns

C=C[C@]12CC[C@H](CC1)N=N2
fluorescence lifetime (in CC#N): 0.56 ns
